In brackets after ≈: the same amount, converted by molar mass.
What was measured:
[1] = tested on: Enterococcus faecalis 416 strain; test: Propensity to resistance development (resistant colonies per plate); assay type: cell-based; conditions: E. faecalis 416 at 10^8 CFU, compound concentration 5 mcg/ml, 48 hours at 35° C.
Description: Enterococcus faecalis 416 strain at 10^8 CFU density level was spirally plated on Mueller Hinton agar containing 5 mcg/ml each of linezolid and representative compound of the invention. Plates were incubated at 35° C. for 48 hours and number of resistant colonies developed in presence of respective compounds were counted by automated counter.

[2] = tested on: MRSA 032; test: MIC determination, linezolid sensitive MRSA 032 (MRSA-32); assay type: cell-based; conditions: Staphylococcus aureus, read-out: MIC MRSA 32
Description: (§1) Infecting doses of organisms given by intraperitoneal route in 5% hog gastric mucin were 10^3-10^4 CFU (colony forming units)/animal for SPN 6303 and 10^8 CFU/animal for MRSA-32. In case of MRSA-32, Linezolid was administered by oral route, 1 and 4 h post infection, BID (twice a day) for 1 day and for SPN 6303 BID for 2 days. […] MICs of Methicillin Resistant Staphylococcus aureus-32 Linezolid resistant (MRSA-32 LNZR), S. pneumoniae 744 Linezolid resistant (SPN 744 LNZR) and parent Linezolid sensitive strains MRSA-32 and SPN 6303 were determined for Linezolid by NCCLS agar dilution method.
(§2) Cultures were further diluted 1:10 in Mueller Hinton broth. Using Denley's mutipoint inoculator, 10^4 cells were deposited on Mueller Hinton agar (Difco) containing range of 2 fold dilutions of test compounds. […] MIC is defined as minimum drug concentration that inhibits test organisms. For determining MIC of test compounds against Streptococcus pneumoniae, Mueller Hinton agar containing 5% sheep blood was employed.

[3] = tested on: S. aureus MRSA-32 LNZR; test: MIC determination, linezolid resistant S. aureus MRSA-32 LNZR; assay type: cell-based; conditions: Staphylococcus aureus, 24 h, read-out: MIC MRSA 32 LNZR
Description: as §1, §2

[4] = tested on: SPN 49619; test: MIC determination, linezolid sensitive SPN 49619; assay type: cell-based; conditions: Streptococcus pneumoniae; linezolid sensitive strain, Table 3
[5] = tested on: E. faecium 367 LNZR; test: MIC determination, linezolid resistant E. faecium 367 LNZR; assay type: cell-based; conditions: Enterococcus faecium, read-out: MIC E. faecium 367 LNZR
Description: E. faecium ATCC 19434 strain at a cell density of 10^6/ml was inoculated in Mueller Hinton broth medium containing Linezolid at a concentration of 5 and 7.5 mcg/ml. The stationary culture was incubated at 37° C. and inspected at every 24 hours to assess the formation of turbidity due to the onset of bacterial growth. […] A 50 microliter sample of turbid flask was plated on Mueller Hinton agar medium incorporated with linezolid at 7.5 mcg/ml. The agar plates were incubated for 48 hours at 37° C. for the formation of discrete colonies of linezolid-resistant strain of E. faecium (E. faecium 367 LNZR). MICs of resistant mutant E. faecium 367 LNZR and parent strain E. faecium ATCC 19434 were determined for linezolid by NCCLS method.
as §2

[6] = tested on: SPN 744 LNZR; test: MIC determination, linezolid resistant SPN 744 LNZR; assay type: cell-based; conditions: Streptococcus pneumoniae, read-out: MIC SPN744 LNZR
Description: as §1, §2

[7] = tested on: Enterococcus faecalis 416 strain; test: Killing effect study (bactericidal vs bacteriostatic activity); assay type: cell-based; conditions: E. faecalis 416, 5 mcg/ml compound, initial count 10^6 CFU/ml, Table 4
Description: The initial inoculum was adjusted to 10^6 CFU (colony forming units) per ml. The flasks were kept on shaker in close cabinet at 35° C. Aliquots were drawn at 112 hours and cell count was determined to assess the extent of loss in viability.

[8] = tested on: Enterococcus faecalis 416; test: Mutant Prevention Concentration (MPC) determination; assay type: cell-based; design: unit not given here; conditions: E. faecalis 416, 10^9 CFU/plate, TSA, 48 hours at 35° C.
Description: Clinical isolate Enterococcus faecalis 416 was spirally plated on Tryptic Soya agar (TSA) plate containing various 2 fold dilutions each of a representative compound of the invention and Linezolid so as to give 10^9 CFU/plate. After incubation at 35° C. for 48 hours, the CFU on each plate was determined. MPC is defined as minimum concentration of drug that prevents mutant colonies on respective antibiotic containing plate.

CC(=O)NC[C@H]1CN(c2ccc(N3CCC(=CC#N)C(F)C3)c(F)c2)C(=O)O1 (mixture of isomers) [Example 56, (S)-N-{3-[4-(4-cyanomethylidene-3-fluoropiperidin-1-yl)-3-fluorophenyl]-2-oxo-oxazolidin-5-ylmethyl}-acetamide]
No. of colonies/plate [1]: 0

CC(=O)NC[C@H]1CN(c2ccc(N3CC/C(=C/C#N)C(F)C3)c(F)c2)C(=O)O1 (stereo partly drawn) [56 (Z), Z-(S)-N-{3-[4-(4-cyanomethylidene-3-fluoropiperidin-1-yl)-3-fluorophenyl]-2-oxo-oxazolidin-5-ylmethyl}-acetamide]
MIC [2]: 0.8 µg/mL (≈ 2.05 µM) | MIC [3]: 25 µg/mL (≈ 64 µM) | MIC [4]: 0.8 µg/mL (≈ 2.05 µM) | MIC [5]: 6.25 µg/mL (≈ 16 µM) | MIC [6]: 12.5 µg/mL (≈ 32 µM)

CC(=O)NC[C@H]1CN(c2ccc(N3CCC(=CC#N)CC3)cc2)C(=O)O1 [Example 3, (S)-N-{3-[4-(4-cyanomethylidene-piperidin-1-yl)-phenyl]-2-oxo-oxazolidin-5-ylmethyl}-acetamide]
MIC [2]: 1.56 µg/mL (≈ 4.4 µM) | MIC [3]: 25 µg/mL (≈ 70.5 µM) | Final Count (112 h) [7]: 10^6 CFU/ml | MIC [4]: 0.8 µg/mL (≈ 2.26 µM) | No. of colonies/plate [1]: 0 | MIC [5]: 25 µg/mL (≈ 70.5 µM) | MIC [6]: 12.5 µg/mL (≈ 35.3 µM) | MPC [8]: 12.5

CC(=O)NC[C@H]1CN(c2ccc(N3CCC(=CC#N)CC3)c(F)c2)C(=O)O1 [Example 9, (S)-N-{3-[4-(4-cyanomethylidene-piperidin-1-yl)-3-fluorophenyl]-2-oxo-oxazolidin-5-ylmethyl}-acetamide]
Final Count (112 h) [7]: 10^3 CFU/ml | No. of colonies/plate [1]: 0 | MPC [8]: 6.25

N#CC=C1CCN(c2ccc(N3C[C@H](CNC(=O)CCl)OC3=O)cc2F)CC1 [Example 31, (S)-N-{3-[4-(4-cyanomethylidene-piperidin-1-yl)-3-fluorophenyl]-2-oxo-oxazolidin-5-ylmethyl}-chloroacetamide]
MIC [2]: 0.8 µg/mL (≈ 1.97 µM) | MIC [3]: 12.5 µg/mL (≈ 30.7 µM) | MIC [4]: 0.8 µg/mL (≈ 1.97 µM) | No. of colonies/plate [1]: 0 | MIC [5]: 6.25 µg/mL (≈ 15.4 µM) | MIC [6]: 12.5 µg/mL (≈ 30.7 µM)

N#CC=C1CCN(c2ccc(N3C[C@H](CNC(=O)C(Cl)Cl)OC3=O)cc2F)CC1 [Example 32, (S)-N-{3-[4-(4-cyanomethylidene-piperidin-1-yl)-3-fluorophenyl]-2-oxo-oxazolidin-5-ylmethyl}-dichloroacetamide]
MIC [2]: 0.8 µg/mL (≈ 1.81 µM) | MIC [3]: 12.5 µg/mL (≈ 28.3 µM) | MIC [4]: 0.8 µg/mL (≈ 1.81 µM) | No. of colonies/plate [1]: 0 | MIC [5]: 6.25 µg/mL (≈ 14.2 µM) | MIC [6]: 6.25 µg/mL (≈ 14.2 µM) | MPC [8]: 6.25

N#CC=C1CCN(c2ccc(N3C[C@H](CNC(=S)CO)OC3=O)cc2F)CC1 [Example 47, (S)-N-{3-[4-(4-cyanomethylidene-piperidin-1-yl)-3-fluorophenyl]-2-oxo-oxazolidin-5-ylmethyl}-2-hydroxythioacetamide]
MIC [2]: 0.8 µg/mL (≈ 1.98 µM) | MIC [4]: 0.4 µg/mL (≈ 0.989 µM) | No. of colonies/plate [1]: 0

CC(=S)NC[C@H]1CN(c2ccc(N3CC/C(=C\C#N)C(F)C3)c(F)c2)C(=O)O1 (stereo partly drawn) [Example 60, (S)-N-{3-[4-(4-cyanomethylidene-3-fluoropiperidin-1-yl)-3-fluorophenyl]-2-oxo-oxazolidin-5-ylmethyl}-thioacetamide]
MIC [2]: 0.25 µg/mL (≈ 0.615 µM) | MIC [3]: 6.25 µg/mL (≈ 15.4 µM) | MIC [4]: 0.1 µg/mL (≈ 0.246 µM) | MIC [5]: 1.56 µg/mL (≈ 3.84 µM) | MIC [6]: 3.12 µg/mL (≈ 7.68 µM)

COC(=S)NC[C@H]1CN(c2ccc(N3CC/C(=C\C#N)C(C)C3)c(F)c2)C(=O)O1 (stereo partly drawn) [Example 67, (S)-N-{3-[4-(4-cyanomethylidene-3-methylpiperidin-1-yl)-3-fluorophenyl]-2-oxo-oxazolidin-5-ylmethyl}-methylthiocarbamate]
MIC [2]: 0.8 µg/mL (≈ 1.91 µM) | MIC [3]: 12.5 µg/mL (≈ 29.9 µM) | MIC [4]: 0.4 µg/mL (≈ 0.956 µM) | MIC [5]: 3.12 µg/mL (≈ 7.46 µM) | MIC [6]: 6.25 µg/mL (≈ 14.9 µM)

CC1CN(c2ccc(N3C[C@H](CNC(N)=S)OC3=O)cc2F)CC/C1=C\C#N (stereo partly drawn) [Example 68, (S)-N-{3-[4-(4-cyanomethylidene-3-methylpiperidin-1-yl)-3-fluorophenyl]-2-oxo-oxazolidin-5-ylmethyl}-thiocarbamide]
MIC [2]: 0.4 µg/mL (≈ 0.991 µM) | MIC [3]: 6.25 µg/mL (≈ 15.5 µM) | MIC [4]: 0.4 µg/mL (≈ 0.991 µM) | MIC [5]: 3.12 µg/mL (≈ 7.73 µM) | MIC [6]: 3.12 µg/mL (≈ 7.73 µM)

CC(=O)NC[C@H]1CN(c2ccc(N3CCC(=C(C)C#N)CC3)c(F)c2)C(=O)O1 [Example 74, (S)-N-{3-[4-(4-(1-cyanoethylidene)-piperidin-1-yl)-3-fluorophenyl]-2-oxo-oxazolidin-5-ylmethyl}-acetamide]
MIC [3]: 25 µg/mL (≈ 64.7 µM) | No. of colonies/plate [1]: 0 | MIC [5]: 6.25 µg/mL (≈ 16.2 µM) | MIC [6]: 6.25 µg/mL (≈ 16.2 µM)

CC(=S)NC[C@H]1CN(c2ccc(N3CCC(=C(C)C#N)CC3)c(F)c2)C(=O)O1 [Example 84, (S)-N-{3-[4-(4-(1-cyanoethylidene)-piperidin-1-yl)-3-fluorophenyl]-2-oxo-oxazolidin-5-ylmethyl}-thioacetamide]
MIC [2]: 0.4 µg/mL (≈ 0.994 µM) | MIC [3]: 1.56 µg/mL (≈ 3.88 µM) | MIC [4]: 0.2 µg/mL (≈ 0.497 µM) | MIC [5]: 1.56 µg/mL (≈ 3.88 µM) | MIC [6]: 1.56 µg/mL (≈ 3.88 µM)

CCC(C#N)=C1CCN(c2ccc(N3C[C@H](CNC(=O)C(Cl)Cl)OC3=O)cc2F)CC1 [Example 90, (S)-N-{3-[4-(4-(1-cyanopropylidene)-piperidin-1-yl)-3-fluorophenyl]-2-oxo-oxazolidin-5-ylmethyl}-dichloroacetamide]
MIC [2]: 0.8 µg/mL (≈ 1.7 µM) | MIC [3]: 12.5 µg/mL (≈ 26.6 µM) | MIC [4]: 0.4 µg/mL (≈ 0.852 µM) | No. of colonies/plate [1]: 0 | MIC [5]: 3.12 µg/mL (≈ 6.65 µM) | MIC [6]: 6.25 µg/mL (≈ 13.3 µM)

CCC(C#N)=C1CCN(c2ccc(N3C[C@H](CNC(C)=S)OC3=O)cc2F)CC1 [Example 93, (S)-N-{3-[4-(4-(1-cyanopropylidene)-piperidin-1-yl)-3-fluorophenyl]-2-oxo-oxazolidin-5-ylmethyl}-thioacetamide]
MIC [2]: 0.4 µg/mL (≈ 0.96 µM) | MIC [3]: 6.25 µg/mL (≈ 15 µM) | MIC [4]: 0.2 µg/mL (≈ 0.48 µM) | MIC [5]: 1.56 µg/mL (≈ 3.75 µM) | MIC [6]: 3.12 µg/mL (≈ 7.49 µM)

CSC(C#N)=C1CCN(c2ccc(N3C[C@H](CNC(C)=O)OC3=O)cc2F)CC1 [Example 115, (S)-N-{3-[4-(4-(1-cyano-1-methylmercapto-methylidene)-piperidin-1-yl)-3-fluorophenyl]-2-oxo-oxazolidin-5-ylmethyl}-acetamide]
MIC [2]: 0.8 µg/mL (≈ 1.91 µM) | MIC [3]: 12.5 µg/mL (≈ 29.9 µM) | MIC [4]: 0.8 µg/mL (≈ 1.91 µM) | MIC [5]: 3.12 µg/mL (≈ 7.46 µM) | MIC [6]: 6.25 µg/mL (≈ 14.9 µM)

CC(=O)NC[C@H]1CN(c2ccc(N3CCC(=C(Br)C#N)CC3)c(F)c2)C(=O)O1 [Example 117, (S)-N-{3-[4-(4-(1-cyano-1-bromo-methylidene)-piperidin-1-yl)-3-fluorophenyl]-2-oxo-oxazolidin-5-ylmethyl}-acetamide]
MIC [2]: 0.8 µg/mL (≈ 1.77 µM) | MIC [3]: 12.5 µg/mL (≈ 27.7 µM) | MIC [4]: 0.4 µg/mL (≈ 0.886 µM) | MIC [5]: 3.12 µg/mL (≈ 6.91 µM) | MIC [6]: 6.25 µg/mL (≈ 13.8 µM)

CC(=O)NC[C@H]1CN(c2ccc(N3CC=C(CC#N)CC3)c(F)c2)C(=O)O1 [Example 159, (S)-N-{3-[4-(4-cyanomethyl-3,4-dehydropiperidin-1-yl)-3-fluorophenyl]-2-oxo-oxazolidin-5-ylmethyl}-acetamide]
melting point: 132 °C | No. of colonies/plate [1]: 1.5 × 10^1

CC(=S)NC[C@H]1CN(c2ccc(N3CC=C(CC#N)CC3)c(F)c2)C(=O)O1 [Example 160, (S)-N-{3-[4-(4-cyanomethyl-3,4-dehydropiperidin-1-yl)-3-fluorophenyl]-2-oxo-oxazolidin-5-ylmethyl}-thioacetamide]
MIC [2]: 0.4 µg/mL (≈ 1.03 µM) | MIC [3]: 6.25 µg/mL (≈ 16.1 µM) | Final Count (112 h) [7]: <10^2 CFU/ml | MIC [4]: 0.2 µg/mL (≈ 0.515 µM) | No. of colonies/plate [1]: 0 | MIC [6]: 3.12 µg/mL (≈ 8.03 µM)

— US7405228B2, “Antibacterial cyano-(substituted)-methylenepiperidinophenyl oxazolidinones targeting multiple ribonucleoprotein sites” (Wockhardt Limited, priority 2002, dated 2008)
